# Laboratory results reported in patent publication US8604021B2, “Substituted arylamine compounds and methods of treatment” (priority 2005, dated 2013).
# What was measured:
# 5HT2A = 5HT2A (Homo sapiens, UniProt P28223); experiment: Compound Binding Profiles: 5HT2A; conditions: * = Estimated IC50
# D1 = D1 (Homo sapiens, UniProt P21728); experiment: Compound Binding Profiles: D1; conditions: read-out: D1 binding class
# D2 = D2 (Homo sapiens, UniProt P14416); experiment: Compound Binding Profiles: D2; conditions: * = Estimated IC50
# D2, sequence (P14416 whole entry): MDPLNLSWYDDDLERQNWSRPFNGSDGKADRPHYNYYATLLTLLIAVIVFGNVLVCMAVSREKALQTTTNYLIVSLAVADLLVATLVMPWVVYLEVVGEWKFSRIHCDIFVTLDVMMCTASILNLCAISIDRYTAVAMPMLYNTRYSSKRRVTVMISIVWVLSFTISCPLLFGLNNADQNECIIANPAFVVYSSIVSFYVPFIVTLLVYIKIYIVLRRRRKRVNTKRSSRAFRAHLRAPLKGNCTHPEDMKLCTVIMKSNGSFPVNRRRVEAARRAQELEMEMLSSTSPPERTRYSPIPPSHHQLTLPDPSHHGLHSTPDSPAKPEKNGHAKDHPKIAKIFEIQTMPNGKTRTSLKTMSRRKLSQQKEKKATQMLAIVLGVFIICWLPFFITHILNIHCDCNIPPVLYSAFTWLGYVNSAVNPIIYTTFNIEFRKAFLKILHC
# α2 = experiment: Compound Binding Profiles: α2; conditions: * = Estimated IC50
# H1 = H1 (Homo sapiens, UniProt P35367); experiment: Compound Binding Profiles: H1; conditions: * = Estimated IC50
# H1, sequence (P35367 whole entry): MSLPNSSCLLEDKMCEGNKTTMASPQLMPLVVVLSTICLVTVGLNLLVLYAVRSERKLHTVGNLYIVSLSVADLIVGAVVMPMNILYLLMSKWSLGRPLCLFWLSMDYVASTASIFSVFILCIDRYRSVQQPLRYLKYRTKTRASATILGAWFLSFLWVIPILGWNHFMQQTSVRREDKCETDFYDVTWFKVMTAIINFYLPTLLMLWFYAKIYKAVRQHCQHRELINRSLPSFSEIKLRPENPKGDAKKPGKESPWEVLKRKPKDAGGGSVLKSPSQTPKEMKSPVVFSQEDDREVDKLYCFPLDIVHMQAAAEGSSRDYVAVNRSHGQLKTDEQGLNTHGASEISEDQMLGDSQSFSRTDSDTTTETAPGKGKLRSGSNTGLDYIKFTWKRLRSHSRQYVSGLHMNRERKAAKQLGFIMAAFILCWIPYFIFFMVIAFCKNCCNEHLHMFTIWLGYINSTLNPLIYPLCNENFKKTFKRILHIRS
# [1] = Oral pharmacokinetics in rodents; conditions: in vivo, oral administration 5 mg/kg
# [2] = Food intake and body weight in rats, sub-chronic dosing; assay type: in vivo; conditions: sub-chronic dosing 10 and 30 mg/kg qd, i.p.
# [3] = Food intake and body weight in mice, sub-chronic dosing; assay type: in vivo; conditions: sub-chronic dosing 10 and 30 mg/kg qd, i.p.
# CYP1A2 = target: T1, CYP1A2 (Homo sapiens, UniProt P05177); experiment: CYP inhibition CYP1A2
# T1 sequence (P05177 1-516): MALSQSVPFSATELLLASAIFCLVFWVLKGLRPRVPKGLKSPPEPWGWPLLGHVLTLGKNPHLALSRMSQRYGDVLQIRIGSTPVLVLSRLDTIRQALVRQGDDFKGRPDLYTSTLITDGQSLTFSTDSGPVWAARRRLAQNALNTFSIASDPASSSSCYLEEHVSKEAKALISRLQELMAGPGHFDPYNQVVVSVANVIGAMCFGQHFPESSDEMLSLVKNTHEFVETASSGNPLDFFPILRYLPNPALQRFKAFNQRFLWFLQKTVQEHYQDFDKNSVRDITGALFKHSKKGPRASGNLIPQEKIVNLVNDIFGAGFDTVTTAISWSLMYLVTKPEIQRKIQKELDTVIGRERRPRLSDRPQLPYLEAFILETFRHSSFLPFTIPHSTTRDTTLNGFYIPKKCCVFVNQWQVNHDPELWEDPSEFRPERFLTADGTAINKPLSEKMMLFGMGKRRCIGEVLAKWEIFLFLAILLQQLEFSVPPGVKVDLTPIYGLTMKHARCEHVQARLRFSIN
# CYP2D6 = CYP2D6 (Homo sapiens, UniProt P10635); experiment: CYP inhibition CYP2D6
# CYP2D6, sequence (P10635 whole entry): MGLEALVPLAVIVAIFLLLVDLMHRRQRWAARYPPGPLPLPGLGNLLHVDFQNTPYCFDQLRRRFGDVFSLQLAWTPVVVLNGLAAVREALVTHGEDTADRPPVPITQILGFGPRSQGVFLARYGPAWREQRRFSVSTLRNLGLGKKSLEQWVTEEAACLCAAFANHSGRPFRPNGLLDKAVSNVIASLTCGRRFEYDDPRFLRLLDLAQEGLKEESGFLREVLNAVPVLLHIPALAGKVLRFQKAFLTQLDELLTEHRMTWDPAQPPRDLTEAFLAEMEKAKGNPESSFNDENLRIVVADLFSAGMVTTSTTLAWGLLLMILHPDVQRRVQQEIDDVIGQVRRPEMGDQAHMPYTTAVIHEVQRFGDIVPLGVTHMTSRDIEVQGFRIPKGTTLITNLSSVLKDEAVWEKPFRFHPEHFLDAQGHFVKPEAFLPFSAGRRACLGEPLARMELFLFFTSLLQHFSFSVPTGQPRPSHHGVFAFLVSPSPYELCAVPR
# CYP2C19 = CYP2C19 (Homo sapiens, UniProt P33261); experiment: CYP inhibition CYP2C19
# CYP2C19, sequence (P33261 whole entry): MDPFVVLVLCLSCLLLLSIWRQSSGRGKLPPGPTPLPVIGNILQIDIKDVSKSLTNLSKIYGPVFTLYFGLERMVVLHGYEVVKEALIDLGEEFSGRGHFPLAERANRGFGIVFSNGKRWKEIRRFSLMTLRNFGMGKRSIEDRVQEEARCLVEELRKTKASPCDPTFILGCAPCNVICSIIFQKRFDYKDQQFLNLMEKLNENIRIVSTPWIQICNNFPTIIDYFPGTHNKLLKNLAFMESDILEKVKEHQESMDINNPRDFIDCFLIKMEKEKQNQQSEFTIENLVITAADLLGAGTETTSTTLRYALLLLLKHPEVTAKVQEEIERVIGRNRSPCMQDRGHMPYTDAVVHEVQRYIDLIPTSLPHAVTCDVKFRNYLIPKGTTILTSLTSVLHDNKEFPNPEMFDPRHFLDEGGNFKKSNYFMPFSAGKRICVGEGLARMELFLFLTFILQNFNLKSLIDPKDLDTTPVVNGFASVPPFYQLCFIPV
# D1, sequence (P21728 whole entry): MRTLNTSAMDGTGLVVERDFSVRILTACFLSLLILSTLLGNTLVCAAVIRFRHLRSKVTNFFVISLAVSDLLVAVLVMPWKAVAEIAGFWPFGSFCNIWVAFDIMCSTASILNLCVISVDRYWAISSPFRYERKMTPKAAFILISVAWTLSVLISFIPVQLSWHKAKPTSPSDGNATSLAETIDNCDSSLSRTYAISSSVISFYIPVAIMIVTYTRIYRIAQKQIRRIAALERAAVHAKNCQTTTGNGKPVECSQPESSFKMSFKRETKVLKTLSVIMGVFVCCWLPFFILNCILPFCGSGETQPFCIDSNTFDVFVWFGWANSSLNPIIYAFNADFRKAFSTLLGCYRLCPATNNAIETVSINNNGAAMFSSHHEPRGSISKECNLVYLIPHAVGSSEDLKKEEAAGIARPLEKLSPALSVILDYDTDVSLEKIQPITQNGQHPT
# 5HT2A, sequence (P28223 whole entry, species assumed): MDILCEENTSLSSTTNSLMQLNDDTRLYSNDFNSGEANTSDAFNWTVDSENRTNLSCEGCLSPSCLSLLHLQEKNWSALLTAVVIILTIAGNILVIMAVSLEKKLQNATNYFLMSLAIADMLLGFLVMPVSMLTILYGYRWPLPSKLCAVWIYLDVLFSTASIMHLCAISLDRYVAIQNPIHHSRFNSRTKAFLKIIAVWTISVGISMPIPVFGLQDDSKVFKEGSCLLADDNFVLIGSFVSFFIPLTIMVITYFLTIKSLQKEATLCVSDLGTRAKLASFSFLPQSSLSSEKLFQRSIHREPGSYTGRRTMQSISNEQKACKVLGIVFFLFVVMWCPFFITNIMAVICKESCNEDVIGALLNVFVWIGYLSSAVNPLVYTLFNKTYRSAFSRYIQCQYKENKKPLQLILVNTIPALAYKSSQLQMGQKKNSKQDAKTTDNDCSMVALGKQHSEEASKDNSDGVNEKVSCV
smiles,measurement,setting,value
"COc1cc(Cl)cc(C(C)Nc2cc(N3CCNCC3)ccc2S(C)(=O)=O)c1OC.Cl (centres unmarked) [Compound A, [1-(5-Chloro-2,3-dimethoxy-phenyl)-ethyl]-(2-methanesulfonyl-5-piperazin-1-yl-phenyl)-amine hydrochloride]",IC50,5HT2A,2500 nM
same,Ki,D1,100 to 1000 nM
same,IC50,D2,9 µM
same,IC50,α2,23 µM
same,IC50,H1,22 µM
same,bioavailability,[1],38%
same,half-life,[1],90 min
same,body weight,[2],significant reduction
same,food intake,[2],significant reduction
same,body weight,[3],significant reduction
same,food intake,[3],significant reduction
same,IC50,CYP1A2,> 7.5 µM
same,IC50,CYP2D6,7.81 µM
same,IC50,CYP2C19,> 7.5 µM
